{"source": "patent US20120288482A1", "about": "“THERAPEUTIC AGENT (Y-39983) FOR CORNEAL ENDOTHELIAL DYSFUNCTION” (priority 2009, published 2012)", "key": {"[1]": {"tested_on": "cultured monkey corneal endothelial cells", "details": "in vitro; cited from earlier work"}, "[2]": {"tested_on": "corneal endothelial wound", "test": "Rabbit corneal endothelial wound model, topical instillation (Example 1)", "assay_type": "in vivo", "details": "10 mM instillation, 6 times a day, 46 hours after wound creation", "procedure": "In this Example, 0.95 mM (0.03 w/v%) compound (I) instillation and 0.32 mM (0.01 w/v%) compound (I) instillation obtained by diluting the above instillation with the above-mentioned vehicle were used.\nAs a positive control substances, Y-27632 dihydrochloride (Wako Pure Chemical Industries, Co., Ltd., Cat. #253-00513) and fasudil hydrochloride hydrate injection (Eril (registered trade mark) drip intravenous injection, Asahi Kasei Pharma) were purchased, and Y-27632 and Fasudil were each adjusted to 10 mM with phosphate-buffered saline (PBS, Invitrogen, Cat. #14190). In addition, PBS was used as a negative control substance.\nMale Japanese white rabbits (body weight 2.5-3.0 kg, 21 rabbits) were purchased from Biotek Co., Ltd. and used. They are kept in individual cages at 23±3° C. temperature, at 55±10% humidity and 12 hours artificial light cycle (lighting on; 8:00 a.m., lighting off; 8:00 p.m.). One hundred grams of solid food (Labo R stock; Nosan Corp.) are provided daily to each animal. Water is supplied by automatic watering apparatus.\n3. Excision of Nictitating Membrane of Animal Before starting the test, the nictitating membrane of both eyes of the animal was excised. To be specific, each animal was set in a positioner, and the ocular surface was topically anesthetized by instillation of a topical anesthesia (Benoxil instillation 0.4%, Santen Pharmaceutical Co., Ltd.). Then, the root position of the nictitating membrane was pressed with a clamp for 30 sec, and compressing mark was cut with scissors. After excision of the nictitating membrane, the antibiotic ointment (tarivid eye ointment, Santen Pharmaceutical Co., Ltd.) was instilled to prevent infection. After 4 days from the excision of the nictitating membrane, animals confirmed to have no abnormality in the external eye including the excised site were used.\nThe corneal thickness of the right eye of each animal was measured with an ultrasonic pachymeter (manufactured by DGH Technologies Inc., DGH-500), and the animals were divided into 4 groups such that the corneal thickness of each group was equal. The animals used for each group were as follows. • 10 mM Y-27632 group=5 eyes • 0.32 mM compound (I) group=5 eyes • 0.95 mM compound (I) group=6 eyes • 10 mM Fasudil group=5 eyes • PBS group=21 eyes (left eye)\nThe animals were sytemically anesthetized by intramuscular administration of Ketalar muscular injection ([…], DAIICHI SANKYO COMPANY, LIMITED., 0.6 ml) and Celactal 2% Injection (Bayer, Ltd., 0.25 ml). Then, Benoxil instillation 0.4% (Santen Pharmaceutical Co., Ltd., one drop) was instilled and the eye was opened using a lid speculum.\nA 7-mm diameter stainless dowel that had been cooled in liquid nitrogen was placed on the central cornea of both eyes of 21 animals for 15 sec. to produce an ice ball in the anterior chamber and dissociate corneal endothelial cells, whereby a corneal endothelial wound was produced.\nFor topical instillation, after wound creation, compound (I) instillation, Y-27632 instillation or Fasudil instillation was instilled to the right eye, and PBS was instilled to the left eye 6 times a day (4 times on the day of wound production) at 50 μL per instillation. Administration interval in one day was 2 hours. […]"}}, "data": [{"smiles": "O=S(=O)(c1cccc2cnccc12)N1CCCNCC1", "note": "[Fasudil]", "values": [{"measurement": "apoptosis", "setting": "[1]", "value": "suppression of apoptosis"}, {"measurement": "cell adhesion", "setting": "[1]", "value": "promotion of cell adhesion"}, {"measurement": "cell cycle", "setting": "[1]", "value": "promotion of cell cycle"}, {"measurement": "area of the unrepaired wound site (corneal endothelium wound area)", "setting": "[2]", "value": 1.7, "unit": "mm^2"}]}]}
